Test results taken from EP2426213A1, “Marker for sunitnib resistance formation” (Max-Planck-Gesellschaft zur Förderung der Wissenschaften …, priority 2010, dated 2012).

Key:
Type in all cases: cell-based, Human
A498 [1] = assay: Propidium iodide (PI) apoptosis assay, LD50 after 72 h
Protocol: (§1) Human kidney carcinoma and melanoma cell lines A498, A704, CAKI1, CAKI2, WM115, WM266-4 and C8161 were provided by M. Herlyn (Wistar Institute, Philadephia) and R. Gillies (Arizona Cancer Center, Phoenix) or purchased from the American Tissue Culture Collection. CAKI1, CAKI2 and C8161 cells were cultured in Dulbecco's modified Eagle's medium (DMEM; Gibco Life Technologies Inc.), supplemented with 10 % fetal calf serum (FCS), 2 mM glutamine, and 1 % nonessential amino acids. A498, A704 and WM115 cells were cultured in Minimum Essential Medium (MEM; Gibco Life Technologies Inc.) supplemented with 10 % FCS, 2 mM glutamine, and 1 % (v/v) nonessential amino acids. WM266-4 cells were cultured in RPMI medium (Gibco Life Technologies Inc.), supplemented with 10 % FCS and 2 mM glutamine.
(§2) The cells were treated with Sunitinb concentrations between 2.5 µM and 20 µM for 72 h and apoptosis was determined according to Nicoletti's procedure (Riccardi and Nicoletti 2006). BD CellQuest Pro software (Becton Dickinson) for subG1 peak detection was used to determine the extent of the apoptotic cell formation. Statistical evaluation of the half maximal lethal dose-(LD50) values was assessed by using SigmaPlot (Systat Software, Inc., version 10).

CAKI1 = assay: as above
Protocol: as §1, §2

C8161^NDes [2] = assay: Apoptosis LD50 in Sorafenib desensitized cell line
Protocol: as §2
(§3) To determine the drug specificity of the selection process, we also established Sorafenib selected polyclonal cell populations using the same conditions.

WM115^NDes [3] = assay: Apoptosis LD50 in Sorafenib desensitized cell line
Protocol: as §2, §3

WM266-4^NDes [4] = assay: Apoptosis LD50 in Sorafenib desensitized cell line
Protocol: as §2, §3

A704 = assay: Propidium iodide (PI) apoptosis assay, LD50 after 72 h; conditions: A704 parental, Sunitinib 2.5-20 µM, apoptosis (subG1)
Protocol: as §1, §2

C8161 [5] = assay: as above; conditions: C8161 parental; Sunitinib 72 h; apoptosis (subG1)
Protocol: as §1, §2

WM115 [6] = assay: as above; conditions: WM115 parental; Sunitinib 72 h; apoptosis (subG1)
Protocol: as §1, §2

WM266-4 [7] = assay: as above; conditions: WM266-4 parental; Sunitinib 72 h; apoptosis (subG1)
Protocol: as §1, §2

A498^SDes [8] = assay: Apoptosis LD50 in Sunitinib desensitized cell line; conditions: A498^SDes compared to parental cell line; 72 h
Protocol: as §2

A704^SDes = assay: Apoptosis LD50 in Sunitinib desensitized cell line; conditions: A704^SDes compared to parental cell line; 72 h
Protocol: as §2

C8161^Sdes [9] = assay: Apoptosis LD50 in Sunitinib desensitized cell line; conditions: C8161^Sdes compared to parental cell line; 72 h
Protocol: as §2

WM115^SDes [10] = assay: Apoptosis LD50 in Sunitinib desensitized cell line; conditions: WM115^SDes compared to parental cell line; 72 h
Protocol: as §2

WM266-4^SDes [11] = assay: Apoptosis LD50 in Sunitinib desensitized cell line; conditions: WM266-4^SDes compared to parental cell line; 72 h
Protocol: as §2

A704^NDes = assay: Apoptosis LD50 in Sorafenib selected cell line
Protocol: as §2, §3

A498^SDes [12] = assay: Increased Sunitinib-induced apoptosis (AdA) after siRNA knock-down, PI assay; conditions: Sunitinib 72 h
Protocol: (§4) The cells were seeded with equal numbers in 6-Well plates and transfected with 40 pmol siRNA (PRKX (AMBION, cat. no.: s224410, s224411, s11195), TTBK2 (AMBION, cat. no.: s44812, s44813, s44814), RSK4/RPS6KA6 (AMBION, cat. no.: s223751, s223752, s223753) and 5 µl lipofectamine RNAiMAX (Invitrogen) following the manufacturers' protocols. To determine the knock-down efficiency, semi-quantitative RT-PCR was performed (Primer list, see table 1). Table 1: Primer used for RT-PCR
(§5) Apoptotic cell formation was monitored according to Nicoletti's procedure.
(§6) To analyze the increased Sunitinib-induced apoptosis (AdA) upon gene-expression reduction compared to the control siRNA, apoptosis was determined using PI-Assays after 72 h. Gene knock-downs ranged between 50% and 90%, as estimated by scanning densitometry (Fig. 4A). […] Like for PRKX and TTBK2, the […] in gene-expression strongly correlated with the degree of desensitization.

A498 [13] = assay: as above; conditions: Sunitinib 72 h
Protocol: as §4, §5, §6

C8161^NDes [14] = assay: as above; conditions: C8161NDes, Sunitinib 72 h
Protocol: as §4, §5, §6

C8161^Sdes [15] = assay: as above; conditions: Sunitinib 72 h
Protocol: as §4, §5, §6

C8161 [16] = assay: as above; conditions: Sunitinib 72 h
Protocol: as §4, §5, §6

WM115^NDes [17] = assay: as above; conditions: Sunitinib 72 h
Protocol: as §4, §5, §6

WM115 [18] = assay: as above; conditions: Sunitinib 72 h
Protocol: as §4, §5, §6

WM266-4^NDes [19] = assay: as above; conditions: Sunitinib 72 h
Protocol: as §4, §5, §6

WM266-4^SDes [20] = assay: as above; conditions: Sunitinib 72 h
Protocol: as §4, §5, §6

WM266-4 [21] = assay: as above; conditions: Sunitinib 72 h
Protocol: as §4, §5, §6

WM115^SDes [22] = assay: as above; conditions: RSK4 reduction by siRNA vs control siRNA, Sunitinib 72 h
Protocol: as §4, §5

A498^SDes cells = assay: Boyden Chamber migration assay after siRNA knock-down and Sunitinib treatment; conditions: Sunitinib 12 h
Protocol: as §4, §5
(§7) Then, cells were seeded onto a membrane with 8 µm pores of a modified Boyden chamber (Schubert and Weiss) containing 500 µL serum-free medium. 10 % FCS served as chemo-attractant.

parental A498 cells = assay: as above; conditions: Sunitinib 12 h
Protocol: as §4, §5, §7

[23] = PRKX reduction by siRNA vs control siRNA
[24] = RSK4 reduction by siRNA vs control siRNA
[25] = TTBK2 reduction by siRNA vs control siRNA

CNC(=O)c1cc(Oc2ccc(NC(=O)Nc3ccc(Cl)c(C(F)(F)F)c3)cc2)ccn1 [Sorafenib]
Sorafenib sensitivity (apoptosis) (A498 [1]; parental A498): insensitivity | Sorafenib sensitivity (apoptosis) (CAKI1; parental CAKI1): insensitivity | decreased sensitivities against Sorafenib compared to the parental cell lines (C8161^NDes [2]; C8161^NDes, Sorafenib LD50): 249% | decreased sensitivities against Sorafenib compared to the parental cell lines (WM115^NDes [3]; WM115^NDes, Sorafenib LD50): 197% | decreased sensitivities against Sorafenib compared to the parental cell lines (WM266-4^NDes [4]; WM266-4^NDes, Sorafenib LD50): 130%

CCN(CC)CCNC(=O)c1c(C)[nH]c(/C=C2\C(=O)Nc3ccc(F)cc32)c1C [Sunitinib]
LD50-values (A498 [1]; A498 parental, Sunitinib 72 h, apoptosis (subG1)): 12.4 ± 0.4 µM | LD50-values (A704): 2.2 ± 0.4 µM | LD50-values (C8161 [5]): 15.5 ± 0.7 µM | LD50-values (CAKI1; CAKI1 parental, Sunitinib 72 h, apoptosis (subG1)): 16.6 ± 1.5 µM | LD50-values (WM115 [6]): 3.6 ± 0.9 µM | LD50-values (WM266-4 [7]): 6.4 ± 1.3 µM | increase of the LD50-values (A498^SDes [8]): 122% | increase of the LD50-values (A704^SDes): 344% | increase of the LD50-values (C8161^Sdes [9]): 112% | increase of the LD50-values (WM115^SDes [10]): 301% | increase of the LD50-values (WM266-4^SDes [11]): 174% | Sunitinib LD50-value (A704^NDes; A704^NDes (Sorafenib selected)): 9.0 ± 2.5 µM | increased Sunitinib LD50-value (A704^NDes; A704^NDes in comparison to the parental cell line): 419% | decrease in Sunitinib sensitivity (C8161^NDes [2]; C8161^Ndes compared to parental): 77% | increase of the Sunitinib LD50-values (WM115^NDes [3]; WM115^Ndes compared to parental): 249% | increase of the Sunitinib LD50-values (WM266-4^NDes [4]; WM266-4^Ndes compared to parental): 168% | increased Sunitinib-induced apoptosis (AdA) (A498^SDes [12]; PRKX reduction by siRNA vs control siRNA, A498SDes): 14.7 ± 4.4% | increased Sunitinib-induced apoptosis (AdA) (A498^SDes [12]; RSK4 reduction by siRNA vs control siRNA, A498^SDes): 14.7 ± 4.4% | increased Sunitinib-induced apoptosis (AdA) (A498^SDes [12]; TTBK2 reduction by siRNA vs control siRNA, A498^SDes): 13.6 ± 0.4% | increased Sunitinib-induced apoptosis (AdA) (A498 [13]; [23]): 6.5 ± 3.2% | increased Sunitinib-induced apoptosis (AdA) (A498 [13]; [24]): 6.5 ± 3.2% | increased Sunitinib-induced apoptosis (AdA) (A498 [13]; [25]): 7.1 ± 3.1% | increased Sunitinib-induced apoptosis (AdA) (C8161^NDes [14]; [23]): 18.1 ± 8.8% | increased Sunitinib-induced apoptosis (AdA) (C8161^NDes [14]; [24]): 6.0 ± 2.1% | increased Sunitinib-induced apoptosis (AdA) (C8161^NDes [14]; [25]): -2.2 ± 6.8% | increased Sunitinib-induced apoptosis (AdA) (C8161^Sdes [15]; PRKX reduction by siRNA vs control siRNA, C8161SDes): 35.8 ± 9.9% | increased Sunitinib-induced apoptosis (AdA) (C8161^Sdes [15]; RSK4 reduction by siRNA vs control siRNA, C8161SDes): 11.9 ± 4.8% | increased Sunitinib-induced apoptosis (AdA) (C8161^Sdes [15]; TTBK2 reduction by siRNA vs control siRNA, C8161^SDes): 20.3 ± 8.1% | increased Sunitinib-induced apoptosis (AdA) (C8161 [16]; [23]): 19.4 ± 2.4% | increased Sunitinib-induced apoptosis (AdA) (C8161 [16]; [24]): 12.5 ± 3.6% | increased Sunitinib-induced apoptosis (AdA) (C8161 [16]; [25]): 7.3 ± 4.8% | increased Sunitinib-induced apoptosis (AdA) (WM115^NDes [17]; PRKX reduction by siRNA vs control siRNA, WM115NDes): 3.9 ± 4.8% | increased Sunitinib-induced apoptosis (AdA) (WM115^NDes [17]; RSK4 reduction by siRNA vs control siRNA, WM115^NDes): 5.6 ± 3.8% | increased Sunitinib-induced apoptosis (AdA) (WM115^NDes [17]; TTBK2 reduction by siRNA vs control siRNA, WM115NDes): 11.7 ± 4.4% | increased Sunitinib-induced apoptosis (AdA) (WM115 [18]; [23]): 3.2 ± 0.4% | increased Sunitinib-induced apoptosis (AdA) (WM115 [18]; [24]): 4.8 ± 2.3% | increased Sunitinib-induced apoptosis (AdA) (WM115 [18]; [25]): 4.8 ± 1.5% | increased Sunitinib-induced apoptosis (AdA) (WM266-4^NDes [19]; [23]): 23.0 ± 5.4% | increased Sunitinib-induced apoptosis (AdA) (WM266-4^NDes [19]; [24]): 5.3 ± 5.2% | increased Sunitinib-induced apoptosis (AdA) (WM266-4^NDes [19]; [25]): 12.7 ± 2.5% | increased Sunitinib-induced apoptosis (AdA) (WM266-4^SDes [20]; PRKX reduction by siRNA vs control siRNA, WM266-4SDes): 34.1 ± 4.9% | increased Sunitinib-induced apoptosis (AdA) (WM266-4^SDes [20]; RSK4 reduction by siRNA vs control siRNA, WM266-4^SDes): 20.2 ± 5.7% | increased Sunitinib-induced apoptosis (AdA) (WM266-4^SDes [20]; TTBK2 reduction by siRNA vs control siRNA, WM266-4SDes): 16.8 ± 7.7% | increased Sunitinib-induced apoptosis (AdA) (WM266-4 [21]; [23]): 22.4 ± 6.7% | increased Sunitinib-induced apoptosis (AdA) (WM266-4 [21]; [24]): 7.1 ± 2.0% | increased Sunitinib-induced apoptosis (AdA) (WM266-4 [21]; [25]): 5.1 ± 2.0% | increased Sunitinib-induced apoptosis (AdA) (WM115^SDes [22]): 14.1 ± 3.2% | increased Sunitinib inhibitory effect (migration) (A498^SDes cells; PRKX reduction by siRNA): 76.4 ± 4.1% | increased Sunitinib anti-migratory effect (A498^SDes cells; RSK4 reduction by siRNA): 8.6 ± 3.1% | inhibition of migration compared to the scrambled siRNA control (parental A498 cells; PRKX reduction by siRNA): 64.4 ± 11.1% | increase in Sunitinib inhibition of migration (parental A498 cells; RSK4 reduction by siRNA): 27.3 ± 2.7% | increase in Sunitinib inhibition of migration (parental A498 cells; TTBK2 reduction by siRNA): 37.1 ± 1.0%
